Data reported in patent publication US20210190799A1, “METHOD FOR DIAGNOSING LIVER DISEASES AND METHOD FOR SCREENING THERAPEUTIC AGENT FOR LIVER DISEASES USING CHANGES IN EXPRESSION OF TM4SF5 PROTEIN” (SEOUL NATIONAL UNIVERSITY R&DB FOUNDATION, priority 2017, published 2021).
Where a chain is given by its changes, count along the chain named. Values belong to the molecule of their own block, whether it stands above or below them.

Assays:
c-Src protein = biological target: T1, c-Src protein (Mus musculus, UniProt P05480); test: Western blotting of separated liver tissue of the liver disease model mouse treated with c-Src inhibitor PP2 or control PP3; assay type: cell-based; conditions: FIG. 26C
T1 construct: from tissue; host or cells: liver tissue / hepatocytes of CCl4-treated BALB/C mice
Description: Particularly, a lysis buffer [50 mM Tris-HCl (pH 7.4), 1% NP40, 0.25% sodium dioxycholate, 150 mM NaCl, 1 mM EDTA], SDS (sodium dodecyl sulfate), Na3O4V and protease inhibitor cocktail (GenDepot) were added to the obtained liver tissue, which was left at 4° C. for 15 minutes to lyse the tissue. The lysate was centrifuged for 30 minutes under the conditions of 13,000 rpm and 4° C. to obtain a supernatant. The proteins present in the supernatant were quantified using BCA reagent (Thermo Scientifics). 4× sample buffer [4 ml of 100% glycerol, 2.4 ml of Tris-HCl (pH 6.8), 0.8 g of SDS, 4 mg of brominated phenol blue, 0.4 ml of β-mercaptoethanol and 3.1 ml of H2O, final volume: 10 ml] was added thereto, which was boiled at 100° C. for 5 minutes. SDS-PAGE was performed, and the proteins were transferred to a nitrocellulose membrane (Whatman). The membrane was pretreated in a solution containing 5% skim milk for 1 hour, and reacted with the antibodies against laminin (Abcam, UK), ACC1 (Cell Signalling, USA), SREBP1 precursor (Santa cruz, USA), mature SREBP1 (Santa cruz, USA), MTP (Santa cruz, USA), PPARα (Santa cruz, USA), pY^706STAT3 (Millipore, USA), STAT3 (Santa cruz, USA), α-tubulin (Sigma, USA) and TM4SF5 (J Clin Invest. 2008 April; 118(4): 1354-66) as the primary antibodies at 4° C. for 15 hours. […]

liver tissue [1] = test: Liver disease mouse model induced by carbon tetrachloride (CCl4); assay type: in vivo, BALB/C mice
Description: First, a mouse model in which liver disease was induced by intraperitoneally injecting carbon tetrachloride (CCl4) once a week for 1, 4 or 16 weeks at the concentration of 1 mg/kg to 4-week-old BALB/C mice (Orient Bio, Korea) was prepared.
On the other hand, after administering CCl4 to the TM4SF5 gene KO mouse prepared in Example <7-1> as described above, the liver tissue was obtained and Mason's trichrome staining was performed, and the results are shown in FIG. 22C. As a result, it was confirmed that the accumulation of collagen was decreased in the TM4SF5 gene KO mouse compared to the control group (FIG. 22C).

Castor1 protein = biological target: T2, Castor1 protein (Homo sapiens, UniProt Q8WTX7); test: [3H]-arginine binding to precipitated Castor1 protein
T2 construct: made in house; host or cells: HEK293FT cells, transient transfection with PEI, pull-down on streptavidin-coated beads
T2 sequence (Q8WTX7 1-329): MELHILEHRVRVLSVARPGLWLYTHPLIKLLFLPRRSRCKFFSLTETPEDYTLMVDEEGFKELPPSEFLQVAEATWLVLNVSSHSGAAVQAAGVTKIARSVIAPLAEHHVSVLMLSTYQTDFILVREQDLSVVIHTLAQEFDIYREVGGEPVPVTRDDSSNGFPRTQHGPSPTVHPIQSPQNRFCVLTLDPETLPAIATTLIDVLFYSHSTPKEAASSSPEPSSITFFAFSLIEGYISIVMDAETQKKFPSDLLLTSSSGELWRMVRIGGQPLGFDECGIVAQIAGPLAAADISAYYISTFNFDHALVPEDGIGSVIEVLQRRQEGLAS
Description: (§1) First, HEK293FT cells (Thermo, USA) were prepared by culturing in 5% CO2 at 37° C. using DMEM containing 10% FBS and antibiotics. The prepared cells were distributed in 150 mm plates and cultured to the density of 60%, which were transfected with the construct expressing TM4SF5, MetaP2, Castrol, TM4SF1, TM4SF4 and TM4SF5 proteins constructed in Example 11 using PEI. Two days after the transfection, the desired protein was precipitated under the same conditions and methods as described in Example 11 using the beads coated with streptavidin. The precipitate was added with 10 μM [3H]-arginine (American radiolabeled chemicals, USA), followed by reaction at 4° C. for 1 hour. At this time, a sample in which 10 mM of L-arginine was added to the same amount of beads was used as the control. Upon completion of the reaction, the beads were washed 3 times with lysis buffer, to which 2 m ? of scintillation cocktail (Ultima gold, Perkin Elmer, USA) was added. The mixture was vortexed and analyzed using a liquid scintillation counter (Tri-Carb, Perkin Elmer, USA).

[2] = biological target: T3, short extracellular loop (SEL) mutant of TM4SF5 protein (Homo sapiens, UniProt O14894); test: Arginine binding to short extracellular loop (SEL) mutant of TM4SF5; conditions: FIG. 15F
T3 construct: a short extracellular loop (SEL) fragment mutant comprising the 31st to 42nd amino acid residues from the N-terminus; made in house
Description: as §1
(§2) First, a short extracellular loop (SEL) fragment mutant comprising the 31st to 42nd amino acid residues from the N-terminus of the amino acid sequence constituting TM4SF5 protein (SEQ. ID. NO: 1) and a long extracellular loop (LEL) fragment mutant comprising the 113th to 157th amino acid residues from the N-terminus were prepared. […]

[3] = High arginine diet for 10 weeks: body weight and liver fat (H&E); assay type: in vivo, mouse; conditions: for weight gain compared to the mouse fed a normal diet: high arginine diet 10 weeks, FIG. 17A
Description: Particularly, the TM4SF5 gene KO mouse prepared in Example <7-1> was fed L-arginine (40 g/kg of mouse body weight) for 10 weeks.
The liver tissue was extracted from the TM4SF5 gene KO mouse fed a high arginine diet in Example <13-1>, and H&E staining was performed using the method described above.

[4] = biological target: T4, TM4SF5 mutant, 124th to 129th amino acid residues (Homo sapiens, UniProt O14894, E129A/F128S/G125A/H127A/W124A/Y126S); test: Arginine binding to TM4SF5 mutants of the 124th to 129th amino acid residues; conditions: FIG. 15G
T4 construct: made in house
T4 sequence (O14894 1-197 W124A/G125A/Y126S/H127A/F128S/E129A): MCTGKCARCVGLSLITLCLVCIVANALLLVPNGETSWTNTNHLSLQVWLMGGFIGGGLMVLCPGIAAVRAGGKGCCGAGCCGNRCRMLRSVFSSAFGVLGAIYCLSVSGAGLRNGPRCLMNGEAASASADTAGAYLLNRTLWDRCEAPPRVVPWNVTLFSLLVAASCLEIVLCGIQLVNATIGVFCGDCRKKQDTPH
Description: as §1, §2

TM4SF5 protein = biological target: T5, TM4SF5 protein (Homo sapiens, UniProt O14894); test: [3H]-arginine binding to precipitated TM4SF5 protein (liquid scintillation)
T5 construct: in addition to the wild type of TM4SF5 protein (WT, full length); made in house; host or cells: HEK293FT cells, transient transfection with PEI, pull-down on streptavidin-coated beads
T5 sequence (O14894 1-197): T4 sequence (O14894 1-197 W124A/G125A/Y126S/H127A/F128S/E129A) with A124W, A125G, S126Y, A127H, S128F, A129E
Description: as §1
An experiment was performed to confirm whether the binding of TM4SF5 protein and arginine confirmed in Example <12-2> was concentration-dependent. The experiment was performed under the same conditions and methods as described in Example <12-2>, except that HEK293FT cells transformed with TM4SF5 protein were used and 0, 0.01, 0.05. 0.1 or 0.5 mM L-arginine was added.

liver tissue [5] = test: Liver cancer induced by injecting diethylnitrosamine (DEN); assay type: in vivo; conditions: transgenic mouse
Description: The exacerbation process of liver disease was confirmed using the transgenic mouse as follows. Particularly, the transgenic mouse was induced with liver cancer by injecting diethylnitrosamine (DEN). The liver tissue was extracted from the mouse, and H&E staining was performed. As a result, it was confirmed that liver cancer was induced (FIG. 31A). It was also confirmed that the phosphorylation of STAT3 protein and the expression of laminin were increased as the expression of TM4SF5 protein increased (FIG. 31B).

SOCS3 gene = test: SOCS3 shRNA in primary hepatocytes, Western blotting; assay type: cell-based, mouse; conditions: FIG. 8E
Source text: The primary hepatocytes isolated from the normal mouse (52 weeks old) were transfected with SOCS3 (NM_174466) shRNA (shSOCS3, sense 5′ […]-3′ SEQ. ID. NO: 111; antisense 5′ […]-3′ SEQ. ID. NO: 112) under the same conditions and methods as described in Example <4-1> to prepare hepatocytes wherein the expression of SOCS3 gene was suppressed, and the expression changes of SREBP1 and SOCS3 proteins and the phosphorylation changes of STAT3 were confirmed by Western blotting.

[6] = test system: STAT3 phosphorylation and laminin protein expression; test: Western blotting of separated liver tissue of the liver disease model mouse treated with IL-6; assay type: cell-based; conditions: FIG. 26A
Description: Particularly, a lysis buffer [50 mM Tris-HCl (pH 7.4), 1% NP40, 0.25% sodium dioxycholate, 150 mM NaCl, 1 mM EDTA], SDS (sodium dodecyl sulfate), Na3O4V and protease inhibitor cocktail (GenDepot) were added to the obtained liver tissue, which was left at 4° C. for 15 minutes to lyse the tissue. The lysate was centrifuged for 30 minutes under the conditions of 13,000 rpm and 4° C. to obtain a supernatant. The proteins present in the supernatant were quantified using BCA reagent (Thermo Scientifics). 4× sample buffer [4 ml of 100% glycerol, 2.4 ml of Tris-HCl (pH 6.8), 0.8 g of SDS, 4 mg of brominated phenol blue, 0.4 ml of β-mercaptoethanol and 3.1 ml of H2O, final volume: 10 ml] was added thereto, which was boiled at 100° C. for 5 minutes. SDS-PAGE was performed, and the proteins were transferred to a nitrocellulose membrane (Whatman). The membrane was pretreated in a solution containing 5% skim milk for 1 hour, and reacted with the antibodies against laminin (Abcam, UK), ACC1 (Cell Signalling, USA), SREBP1 precursor (Santa cruz, USA), mature SREBP1 (Santa cruz, USA), MTP (Santa cruz, USA), PPARα (Santa cruz, USA), pY^706STAT3 (Millipore, USA), STAT3 (Santa cruz, USA), α-tubulin (Sigma, USA) and TM4SF5 (J Clin Invest. 2008 April; 118(4): 1354-66) as the primary antibodies at 4° C. for 15 hours. Then, the membrane was reacted with the secondary antibody, and developed on an X-ray film using an ECL solution (Pierce, USA).
In addition, the separated liver tissue was treated with IL-6 and Western blotting was performed as described above to confirm whether the increased STAT3 phosphorylation and laminin protein expression were dependent on IL-6. […] Therefore, it was confirmed that the expressions of laminin and laminin γ2 were increased depending on TM4SF5 protein.

fat-related genes = test: Real-time PCR of fat-related genes in normal hepatocytes treated with IL-6; assay type: cell-based, C57BL/6 normal mouse; conditions: FIGS. 4B and 4C
[7] = administered for 4 or 16 weeks, FIG. 22A
[8] = primary hepatic epithelial cells

expression of laminin protein (c-Src protein): suppressed
phosphorylation of STAT3 protein (c-Src protein): suppressed
Molecule: CC(C)(C)n1nc(-c2ccc(Cl)cc2)c2c(N)ncnc21 [PP2]

Molecule: ClC(Cl)(Cl)Cl [CCl4, carbon tetrachloride]
expression of TM4SF5 protein, phosphorylation of STAT3 protein and level of ECM in the liver tissue (liver tissue [1]; FIG. 23A): all increased
accumulation of collagen, Mason's trichrome staining (liver tissue [1]; TM4SF5 gene KO mouse compared to the control group, FIG. 22C): decreased
cells in the liver tissue, H&E and Mason's trichrome staining (liver tissue [1]; [7]): died
collagen between the cells (liver tissue [1]; [7]): accumulated
mRNA levels of elastin, laminin α2, α3, α5, γ2, and γ3 chains versus control group not treated (liver tissue [1]; administered for 4 or 16 weeks, FIG. 23B): higher

Molecule: N=C(N)NCCC[C@H](N)C(=O)O [arginine, L-arginine]
binding of Castor1 compared with control protein MetaP2 (Castor1 protein; FIG. 15B): more strongly
binding to Castor1 protein (Castor1 protein; FIGS. 15B and 15C): directly bound
binding to SEL mutant of TM4SF5 protein [2]: not bound
weight gain of each mouse in comparison to the starting point of the high arginine diet ([3]; TM4SF5 gene KO mouse, FIG. 17B): significantly decreased
fat accumulation in the liver tissue, H&E staining ([3]; TM4SF5 gene KO mouse, FIG. 17C): relatively suppressed
weight gain compared to the mouse fed a normal diet ([3]; TM4SF5 gene KO mouse): about 7%
fatty liver, H&E staining of liver tissue ([3]; normal mouse, FIG. 17C): fatty liver was induced
weight gain compared to the mouse fed a normal diet ([3]; normal mouse): about 25%
binding to TM4SF5 mutant of 124th to 129th residues [4]: not bound
concentration dependence of binding to TM4SF5 protein (TM4SF5 protein; 0, 0.01, 0.05, 0.1 or 0.5 mM L-arginine, FIGS. 15D and 15E): concentration-dependently
binding to TM4SF5 protein (TM4SF5 protein; 10 μM [3H]-arginine, 4° C., 1 hour, FIGS. 15B and 15C): directly bound
binding of TM4SF5 compared with control protein MetaP2 (TM4SF5 protein; FIG. 15B): more strongly
binding of TM4SF5 compared with TM4SF1 or TM4SF4 (TM4SF5 protein; FIG. 15C): more strongly

Molecule: CCN(CC)N=O [diethylnitrosamine]
liver cancer, H&E staining (liver tissue [5]; FIG. 31A): induced
phosphorylation of STAT3 protein and expression of laminin (liver tissue [5]; FIG. 31B): increased

Molecule: shSOCS3: SOCS3 shRNA, SEQ. ID. NO: 111 (sense) and 112 (antisense) (sense CAACAUCUCUGUCGGAAGAUU; antisense UCUUCCGACAGAGAUGUUGUU; listed as RNA, chemistry not given here)
amount of SREBP1 protein (SOCS3 gene; [8]): decreases
phosphorylation of STAT3 protein (SOCS3 gene; [8]): increases
expression of SOCS3 gene (SOCS3 gene; primary hepatocytes): decreased

Molecule: IL-6: a cytokine associated with fatty liver
expression of collagen 1 [6]: increased
level of laminin protein [6]: not changed
phosphorylation of STAT3 protein [6]: increased
expressions of Srebp1, Srebp2, Fasn, CD36, Fabp1, Vldlr and Ldlr, the fat-related genes (fat-related genes): increased
